{"source": "patent US8143408B2", "about": "“N-(8-heteroaryltetrahydronaphtalene-2yl) or N-(5-heteroarylchromane-3-yl) carboxamide derivatives for the treatment of pain” (AstraZeneca AB, priority 2007, dated 2012)", "data": [{"target": "T1, Nav1.7 voltage-gated sodium channel (Homo sapiens, UniProt Q15858)", "T1 construct": "Gene(s) encoding the full-length protein of the voltage-gated sodium channel of interest are cloned and expressed; expressed in transfected cells", "T1 sequence (Q15858 whole entry)": "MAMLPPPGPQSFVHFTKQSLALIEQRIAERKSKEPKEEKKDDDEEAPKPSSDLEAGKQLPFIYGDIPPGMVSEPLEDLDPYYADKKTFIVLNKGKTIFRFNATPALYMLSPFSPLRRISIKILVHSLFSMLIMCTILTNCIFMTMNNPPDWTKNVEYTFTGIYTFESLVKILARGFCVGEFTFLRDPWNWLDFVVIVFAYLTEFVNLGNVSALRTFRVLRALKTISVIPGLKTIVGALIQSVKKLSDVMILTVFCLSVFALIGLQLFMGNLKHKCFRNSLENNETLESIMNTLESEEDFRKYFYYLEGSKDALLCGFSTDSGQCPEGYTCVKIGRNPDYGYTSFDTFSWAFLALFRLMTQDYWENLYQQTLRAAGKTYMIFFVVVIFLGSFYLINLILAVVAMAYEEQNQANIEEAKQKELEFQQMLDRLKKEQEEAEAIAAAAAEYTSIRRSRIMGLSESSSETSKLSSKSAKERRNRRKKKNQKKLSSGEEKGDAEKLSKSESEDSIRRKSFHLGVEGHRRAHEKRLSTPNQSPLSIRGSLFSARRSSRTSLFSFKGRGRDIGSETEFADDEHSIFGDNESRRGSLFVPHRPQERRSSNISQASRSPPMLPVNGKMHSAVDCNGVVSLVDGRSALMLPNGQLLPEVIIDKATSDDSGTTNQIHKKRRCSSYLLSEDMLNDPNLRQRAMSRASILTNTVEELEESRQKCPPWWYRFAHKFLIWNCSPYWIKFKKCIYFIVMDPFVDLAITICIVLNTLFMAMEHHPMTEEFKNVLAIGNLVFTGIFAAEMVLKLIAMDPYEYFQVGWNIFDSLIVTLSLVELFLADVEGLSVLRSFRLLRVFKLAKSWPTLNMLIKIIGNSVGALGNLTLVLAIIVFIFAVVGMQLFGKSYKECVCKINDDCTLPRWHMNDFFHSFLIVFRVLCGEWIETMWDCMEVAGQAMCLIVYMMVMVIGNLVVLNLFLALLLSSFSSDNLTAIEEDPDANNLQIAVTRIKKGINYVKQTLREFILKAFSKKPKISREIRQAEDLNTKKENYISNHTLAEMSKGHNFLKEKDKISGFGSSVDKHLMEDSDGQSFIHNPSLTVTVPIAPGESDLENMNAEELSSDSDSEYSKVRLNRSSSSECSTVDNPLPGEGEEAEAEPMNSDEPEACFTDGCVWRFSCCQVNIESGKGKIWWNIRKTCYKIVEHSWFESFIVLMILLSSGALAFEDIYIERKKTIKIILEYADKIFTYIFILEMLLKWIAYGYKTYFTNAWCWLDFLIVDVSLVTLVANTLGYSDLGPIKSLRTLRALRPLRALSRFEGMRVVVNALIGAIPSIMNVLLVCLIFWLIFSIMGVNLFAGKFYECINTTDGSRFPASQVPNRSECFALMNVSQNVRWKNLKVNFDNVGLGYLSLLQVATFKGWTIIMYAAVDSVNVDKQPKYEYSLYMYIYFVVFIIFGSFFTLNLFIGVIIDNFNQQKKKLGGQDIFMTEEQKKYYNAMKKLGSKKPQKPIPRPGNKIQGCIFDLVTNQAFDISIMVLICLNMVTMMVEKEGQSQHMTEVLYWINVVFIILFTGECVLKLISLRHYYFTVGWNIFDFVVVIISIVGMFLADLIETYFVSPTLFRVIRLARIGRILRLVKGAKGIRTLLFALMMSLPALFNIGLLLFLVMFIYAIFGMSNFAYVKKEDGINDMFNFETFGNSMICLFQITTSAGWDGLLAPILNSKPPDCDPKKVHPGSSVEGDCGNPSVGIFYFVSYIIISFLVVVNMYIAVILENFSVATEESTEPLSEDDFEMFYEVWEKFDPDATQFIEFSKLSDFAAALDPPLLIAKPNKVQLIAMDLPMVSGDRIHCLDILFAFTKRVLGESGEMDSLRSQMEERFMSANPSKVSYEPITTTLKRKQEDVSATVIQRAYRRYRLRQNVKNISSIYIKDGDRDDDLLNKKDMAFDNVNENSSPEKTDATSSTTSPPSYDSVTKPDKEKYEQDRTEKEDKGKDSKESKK", "assay": "Whole-cell voltage clamp electrophysiology assay", "assay_type": "cell-based", "conditions": "cells stably expressing the voltage-gated sodium channel of interest", "description": "Gene(s) encoding the full-length protein of the voltage-gated sodium channel of interest are cloned and expressed under a suitable promoter in a suitable cell line, as well known in the art. […] Suitable screening assays are as follows.\nElectrophysiological studies can be performed using automated patch-clamp electrophysiology platforms, like IonWorks HT, IonWorks Quattro, PatchXpress, QPatch or any other suitable platform. […] Suitable extracellular and intracellular buffer for such experiments are applied according to the instructions given by the manufacturer of the automated patch-clamp platforms. Cells that express the voltage-gated sodium channel protein of interest are exposed to drugs through the pipetting system integrated in the platforms. A suitable voltage stimulus protocol is used to activate the voltage-gated sodium channel proteins of interest through depolarisation from a defined holding potential.\nElectrophysiological studies can also be performed using the whole cell configuration of the standard patch clamp technique. In this assay, cells that express the voltage-gated sodium channel protein of interest are exposed to the drugs by conventional microperfusion systems and a suitable voltage stimulus protocol is used to activate the voltage-gated sodium channels.", "units": {"IC50": "nM"}, "values": [{"smiles": "O=C(N[C@@H]1COc2cccc(-c3ccncc3)c2C1)c1ccc(OC2CCC2)nc1", "note": "[Example 29, 6-(cyclobutyloxy)-N-[(3S)-5-pyridin-4-yl-3,4-dihydro-2H-chromen-3-yl]nicotin-amide]", "IC50": 158}, {"smiles": "O=C(N[C@@H]1COc2cccc(-c3ccncc3)c2C1)c1ccc(OCC2CC2)nc1", "note": "[Example 30, 6-(cyclopropylmethoxy)-N-[(3S)-5-pyridin-4-yl-3,4-dihydro-2H-chromen-3-yl]nicotin-amide]", "IC50": 200}, {"smiles": "Cc1noc(C)c1-c1cccc2c1C[C@H](NC(=O)c1ccc(OC(C)C)nc1)CC2", "note": "[Example 31, N-[(2R)-8-(3,5-dimethylisoxazol-4-yl)-1,2,3,4-tetrahydronaphthalen-2-yl]-6-isopropoxy-nicotinamide]", "IC50": 2510}, {"smiles": "Cc1noc(C)c1-c1cccc2c1C[C@H](NC(=O)c1cnc(OC3CCCC3)nc1)CC2", "note": "[Example 33, 2-(cyclopentyloxy)-N-[(2R)-8-(3,5-dimethylisoxazol-4-yl)-1,2,3,4-tetrahydronaphthalen-2-yl]pyrimidine-5-carboxamide]", "IC50": 316}, {"smiles": "CCCCS(=O)(=O)c1ccc(C(=O)N[C@@H]2COc3cccc(-c4ccncc4)c3C2)cn1", "note": "[Example 34, 6-(butylsulfonyl)-N-[(3S)-5-pyridin-4-yl-3,4-dihydro-2H-chromen-3-yl]nicotinamide]", "IC50": 631}, {"smiles": "O=C(N[C@@H]1COc2cccc(-c3ccncc3)c2C1)c1ccc(Cl)nc1", "note": "[Example 35, 6-chloro-N-[(3S)-5-pyridin-4-yl-3,4-dihydro-2H-chromen-3-yl]nicotinamide]", "IC50": 631}, {"smiles": "CC(C)Oc1ncc(C(=O)N[C@@H]2COc3cccc(-c4ccncc4)c3C2)cn1", "note": "[Example 36, 2-isopropoxy-N-[(3S)-5-pyridin-4-yl-3,4-dihydro-2H-chromen-3-yl]pyrimidine-5-carboxamide]", "IC50": 1260}, {"smiles": "COc1cnc(C(=O)N[C@@H]2COc3cccc(-c4ccncc4)c3C2)cn1", "note": "[Example 37, 5-methoxy-N-[(3S)-5-pyridin-4-yl-3,4-dihydro-2H-chromen-3-yl]pyrazine-2-carboxamide]", "IC50": 1000}, {"smiles": "CC(C)Oc1cnc(C(=O)N[C@@H]2COc3cccc(-c4ccncc4)c3C2)cn1", "note": "[Example 38, 5-isopropoxy-N-[(3S)-5-pyridin-4-yl-3,4-dihydro-2H-chromen-3-yl]pyrazine-2-carboxamide]", "IC50": 631}, {"smiles": "CC(C)Oc1ccc(C(=O)N[C@@H]2CCc3cccc(-c4ccncc4F)c3C2)cn1", "note": "[Example 39, N-[(2R)-8-(3-fluoropyridin-4-yl)-1,2,3,4-tetrahydronaphthalen-2-yl]-6-isopropoxynicotinamide]", "IC50": 126}, {"smiles": "O=C(N[C@@H]1CCc2cccc(-c3ccncc3F)c2C1)c1ccc(OCC(F)(F)F)nc1", "note": "[Example 40, N-[(2R)-8-(3-fluoropyridin-4-yl)-1,2,3,4-tetrahydronaphthalen-2-yl]-6-(2,2,2-trifluoroethoxy)nicotinamide]", "IC50": 50.1}, {"smiles": "O=C(N[C@@H]1COc2cccc(-c3ccncc3)c2C1)c1cnc2ccccc2n1", "note": "[Example 41, N-[(3S)-5-pyridin-4-yl-3,4-dihydro-2H-chromen-3-yl]quinoxaline-2-carboxamide]", "IC50": 5010}, {"smiles": "CC(C)Oc1cnc(C(=O)N[C@@H]2COc3cccc(-c4cccnc4)c3C2)cn1", "note": "[Example 42, 5-isopropoxy-N-[(3S)-5-pyridin-3-yl-3,4-dihydro-2H-chromen-3-yl]pyrazine-2-carboxamide]", "IC50": 1000}, {"smiles": "O=C(N[C@@H]1COc2cccc(-c3cccnc3)c2C1)c1cnc(OCCC(F)(F)F)cn1", "note": "[Example 43, N-[(3S)-5-pyridin-3-yl-3,4-dihydro-2H-chromen-3-yl]-5-(3,3,3-trifluoropropoxy)pyrazine-2-carboxamide]", "IC50": 501}, {"smiles": "COc1cnc(C(=O)N[C@@H]2COc3cccc(-c4cccnc4)c3C2)cn1", "note": "[Example 44, 5-methoxy-N-[(3S)-5-pyridin-3-yl-3,4-dihydro-2H-chromen-3-yl]pyrazine-2-carboxamide]", "IC50": 631}, {"smiles": "O=C(N[C@@H]1COc2cccc(-c3cccnc3)c2C1)c1ccc2cccnc2n1", "note": "[Example 45, N-[(3S)-5-pyridin-3-yl-3,4-dihydro-2H-chromen-3-yl]-1,8-naphthyridine-2-carboxamide]", "IC50": 1260}, {"smiles": "O=C(N[C@@H]1COc2cccc(-c3cccnc3)c2C1)c1ccc2ncccc2n1", "note": "[Example 46, N-[(3S)-5-pyridin-3-yl-3,4-dihydro-2H-chromen-3-yl]-1,5-naphthyridine-2-carboxamide]", "IC50": 3160}, {"smiles": "COc1ccc(-c2cccc3c2C[C@H](NC(=O)c2cnc(OCCC(F)(F)F)cn2)CO3)cn1", "note": "[Example 48, N-[(3S)-5-(6-methoxypyridin-3-yl)-3,4-dihydro-2H-chromen-3-yl]-5-(3,3,3-trifluoropropoxy)pyrazine-2-carboxamide]", "IC50": 631}, {"smiles": "COc1ccc(-c2cccc3c2C[C@H](NC(=O)c2cnc(OC)cn2)CO3)cn1", "note": "[Example 49, 5-methoxy-N-[(3S)-5-(6-methoxypyridin-3-yl)-3,4-dihydro-2H-chromen-3-yl]pyrazine-2-carboxamide]", "IC50": 1260}, {"smiles": "CC(C)Oc1ccc(C(=O)N[C@@H]2COc3cccc(-c4cccnc4)c3C2)cn1", "note": "[Example 50, 6-isopropoxy-N-[(3S)-5-pyridin-3-yl-3,4-dihydro-2H-chromen-3-yl]nicotinamide]", "IC50": 63.1}, {"smiles": "O=C(N[C@@H]1COc2cccc(-c3cccnc3)c2C1)c1ccc(OCCC(F)(F)F)nc1", "note": "[Example 51, N-[(3S)-5-pyridin-3-yl-3,4-dihydro-2H-chromen-3-yl]-6-(3,3,3-trifluoropropoxy)nicotinamide]", "IC50": 39.8}, {"smiles": "Cc1nn(CC(C)C)nc1C(=O)N[C@@H]1COc2cccc(-c3cccnc3)c2C1", "note": "[Example 52, 2-isobutyl-5-methyl-N-[(3S)-5-pyridin-3-yl-3,4-dihydro-2H-chromen-3-yl]-2H-1,2,3-triazole-4-carboxamide]", "IC50": 3980}, {"smiles": "CC(C)Oc1ccc(C(=O)N[C@@H]2COc3cccc(-c4cncnc4)c3C2)cn1", "note": "[Example 53, 6-isopropoxy-N-[(3S)-5-pyrimidin-5-yl-3,4-dihydro-2H-chromen-3-yl]nicotinamide]", "IC50": 251}, {"smiles": "O=C(N[C@@H]1COc2cccc(-c3cncnc3)c2C1)c1ccc(OCCC(F)(F)F)nc1", "note": "[Example 54, N-[(3S)-5-pyrimidin-5-yl-3,4-dihydro-2H-chromen-3-yl]-6-(3,3,3-trifluoropropoxy)nicotinamide]", "IC50": 63.1}, {"smiles": "COc1ncc(-c2cccc3c2C[C@H](NC(=O)c2ccc(OC(C)C)nc2)CO3)cn1", "note": "[Example 55, 6-isopropoxy-N-[(3S)-5-(2-methoxypyrimidin-5-yl)-3,4-dihydro-2H-chromen-3-yl]nicotinamide]", "IC50": 316}, {"smiles": "COc1cc(-c2cccc3c2C[C@H](NC(=O)c2ccc(OC(C)C)nc2)CO3)ccn1", "note": "[Example 58, 6-isopropoxy-N-[(3S)-5-(2-methoxypyridin-4-yl)-3,4-dihydro-2H-chromen-3-yl]nicotinamide]", "IC50": 398}, {"smiles": "COc1cc(-c2cccc3c2C[C@H](NC(=O)c2ccc(OCCC(F)(F)F)nc2)CO3)ccn1", "note": "[Example 59, N-[(3S)-5-(2-methoxypyridin-4-yl)-3,4-dihydro-2H-chromen-3-yl]-6-(3,3,3-trifluoropropoxy)nicotinamide]", "IC50": 126}, {"smiles": "Cc1ncc(-c2cccc3c2C[C@H](NC(=O)c2ccc(OC(C)C)nc2)CO3)cn1", "note": "[Example 60, 6-isopropoxy-N-[(3S)-5-(2-methylpyrimidin-5-yl)-3,4-dihydro-2H-chromen-3-yl]nicotinamide]", "IC50": 158}, {"smiles": "Cc1ncc(-c2cccc3c2C[C@H](NC(=O)c2ccc(OCCC(F)(F)F)nc2)CO3)cn1", "note": "[Example 61, N-[(3S)-5-(2-methylpyrimidin-5-yl)-3,4-dihydro-2H-chromen-3-yl]-6-(3,3,3-trifluoropropoxy)nicotinamide]", "IC50": 50.1}, {"smiles": "CC(C)Oc1ccc(C(=O)N[C@@H]2COc3cccc(-c4ccnc(F)c4)c3C2)cn1", "note": "[Example 62, N-[(3S)-5-(2-fluoropyridin-4-yl)-3,4-dihydro-2H-chromen-3-yl]-6-isopropoxynicotinamide]", "IC50": 251}, {"smiles": "O=C(N[C@@H]1COc2cccc(-c3ccnc(F)c3)c2C1)c1ccc(OCCC(F)(F)F)nc1", "note": "[Example 63, N-[(3S)-5-(2-fluoropyridin-4-yl)-3,4-dihydro-2H-chromen-3-yl]-6-(3,3,3-trifluoropropoxy)nicotinamide]", "IC50": 79.4}, {"smiles": "O=C(N[C@@H]1COc2cccc(-c3cccnc3)c2C1)c1ccc2ccccc2n1", "note": "[Example 65, N-[(3S)-5-pyridin-3-yl-3,4-dihydro-2H-chromen-3-yl]quinoline-2-carboxamide]", "IC50": 5010}, {"smiles": "Cc1cnccc1-c1cccc2c1C[C@H](NC(=O)c1ccc(OC(C)C)nc1)CO2", "note": "[Example 66, 6-isopropoxy-N-[(3S)-5-(3-methylpyridin-4-yl)-3,4-dihydro-2H-chromen-3-yl]nicotinamide]", "IC50": 158}, {"smiles": "CC(C)Oc1ccc(C(=O)N[C@@H]2COc3cccc(-c4ccc(F)nc4)c3C2)cn1", "note": "[Example 67, N-[(3S)-5-(6-fluoropyridin-3-yl)-3,4-dihydro-2H-chromen-3-yl]-6-isopropoxynicotinamide]", "IC50": 501}, {"smiles": "Cc1cnccc1-c1cccc2c1C[C@H](NC(=O)c1ccc(OCCC(F)(F)F)nc1)CO2", "note": "[Example 68, N-[(3S)-5-(3-methylpyridin-4-yl)-3,4-dihydro-2H-chromen-3-yl]-6-(3,3,3-trifluoropropoxy)nicotinamide]", "IC50": 100}, {"smiles": "O=C(N[C@@H]1COc2cccc(-c3ccc(F)nc3)c2C1)c1ccc(OCCC(F)(F)F)nc1", "note": "[Example 69, N-[(3S)-5-(6-fluoropyridin-3-yl)-3,4-dihydro-2H-chromen-3-yl]-6-(3,3,3-trifluoropropoxy)nicotinamide]", "IC50": 79.4}]}]}
